IC50 data for 32 molecules are collected here from patent US11370774B2, “Substituted benzofuran, benzopyrrole, benzothiophene, and structurally related complement inhibitors” (BioCryst Pharmaceuticals, Inc., priority 2018, dated 2022).

The target in the assay is Factor D (Homo sapiens (Human), UniProt P00746). In words: Factor D esterolytic assay (Z-Lys-SBzl substrate, DTNB, 405 nm). The class given is biochemical. As to conditions: Z-Lys-SBzl 1.29 mM, pH 7.5, 10% DMSO, tested a minimum of three times, read-out: Measured Ki (IC50) Value for Compounds: IC50. A digest of the protocol: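 Thioester hydrolysis (Z-Lys-SBzl, 1.29 mM) by human Factor D ([…]) detected through DTNB color at 405 nm over 600 sec, minus 690 nm background. Buffer: 100 mM HEPES pH 7.5, 500 mM NaCl, 10% DMSO; optional room-temperature preincubation before substrate. IC50 derived from percent rate inhibition; at least three runs.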
Factor D, sequence (P00746 26-253): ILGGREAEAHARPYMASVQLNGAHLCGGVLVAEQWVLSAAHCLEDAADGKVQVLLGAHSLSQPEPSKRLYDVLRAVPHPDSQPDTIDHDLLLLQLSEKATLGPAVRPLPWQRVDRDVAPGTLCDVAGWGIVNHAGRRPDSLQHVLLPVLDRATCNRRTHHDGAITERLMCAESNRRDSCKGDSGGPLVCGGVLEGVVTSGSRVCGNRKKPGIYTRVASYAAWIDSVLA
Turning to `COc1ccc(CC(=O)O)c(OCc2cc(-c3cccc(CN)c3)c3oc(F)cc3c2)c1` [Compound 480c, 2-(2-((7-(3-(aminomethyl)phenyl)-2-fluorobenzofuran-5-yl)methoxy)-4-methoxyphenyl)acetic acid], the IC50 was under 1000 nM. The figure for `COc1ccc(CC(=O)O)c(OCc2cc(-c3cccc(CN)c3F)c3oc(F)cc3c2)c1` [Compound 481b, 2-(2-((7-(3-(aminomethyl)-2-fluorophenyl)-2-fluorobenzofuran-5-yl)methoxy)-4-methoxyphenyl)acetic acid] is under 1000 nM; for `COc1ccc(CC(=O)O)c(OCc2cc(-c3ccnc(CN)c3)c3occc3c2)c1` [Compound 482b, 2-(2-((7-(2-(aminomethyl)pyridin-4-yl)benzofuran-5-yl)methoxy)-4-methoxyphenyl)acetic acid] it is under 1000 nM. The figure for `COc1ccc(CC(=O)O)c(OCc2cc(-c3ccnc(CN)c3F)c3oc(F)cc3c2)c1` [Compound 483c, 2-(2-((7-(2-(aminomethyl)-3-fluoropyridin-4-yl)-2-fluorobenzofuran-5-yl)methoxy)-4-methoxyphenyl)acetic acid] is under 1000 nM.

For `NCc1cccc(-c2cc(COc3cc(F)ccc3CC(=O)O)c(F)c3ccoc23)c1` [Compound 484c, 2-(2-((7-(3-(aminomethyl)phenyl)-4-fluorobenzofuran-5-yl)methoxy)-4-fluorophenyl)acetic acid], the IC50 is under 1000 nM. As for `NCc1cccc(-c2cc(COc3cc(F)ccc3CC(=O)O)c(F)c3ccoc23)c1F` [Compound 485b, 2-(2-((7-(3-(aminomethyl)-2-fluorophenyl)-4-fluorobenzofuran-5-yl)methoxy)-4-fluorophenyl)acetic acid], the figure is under 1000 nM. The figure for `NCc1cccc(-c2cc(COc3cc(F)ccc3CC(=O)O)cc3c(C(F)(F)F)coc23)c1` [Compound 486c, 2-(2-((7-(3-(aminomethyl)phenyl)-3-(trifluoromethyl)benzofuran-5-yl)methoxy)-4-fluorophenyl)acetic acid] is under 1000 nM; for `NCc1cccc(-c2cc(COc3cc(F)ccc3CC(=O)O)cc3c(C(F)(F)F)coc23)c1F` [Compound 487b, 2-(2-((7-(3-(aminomethyl)-2-fluorophenyl)-3-(trifluoromethyl)benzofuran-5-yl)methoxy)-4-fluorophenyl)acetic acid] it is under 1000 nM; for `COc1ccc(CC(=O)O)c(OCc2cc(-c3cccc(CN)c3)c3occ(C(F)(F)F)c3c2)c1` [Compound 488c, 2-(2-((7-(3-(aminomethyl)phenyl)-3-(trifluoromethyl)benzofuran-5-yl)methoxy)-4-methoxyphenyl)acetic acid] it is under 1000 nM. The figure for `COc1ccc(CC(=O)O)c(OCc2cc(-c3cccc(CN)c3F)c3occ(C(F)(F)F)c3c2)c1` [Compound 489b, 2-(2-((7-(3-(aminomethyl)-2-fluorophenyl)-3-(trifluoromethyl)benzofuran-5-yl)methoxy)-4-methoxyphenyl)acetic acid] is under 1000 nM; for `NCc1nccc(-c2cc(COc3cc(F)ccc3CC(=O)O)cc3c(C(F)(F)F)coc23)c1F` [Compound 490c, 2-(2-((7-(2-(aminomethyl)-3-fluoropyridin-4-yl)-3-(trifluoromethyl)benzofuran-5-yl)methoxy)-4-fluorophenyl)acetic acid] it is under 1000 nM. As for `NCc1cc(-c2cc(COc3cc(F)ccc3CC(=O)O)cc3c(C(F)(F)F)coc23)ccn1` [Compound 491b, 2-(2-((7-(2-(aminomethyl)pyridin-4-yl)-3-(trifluoromethyl)benzofuran-5-yl)methoxy)-4-fluorophenyl)acetic acid], the IC50 was under 1000 nM.

Take `COc1ccc(CC(=O)O)c(OCc2cc(-c3ccnc(CN)c3)c3oc(F)cc3c2)c1` [Compound 492b, 2-(2-((7-(2-(aminomethyl)pyridin-4-yl)-2-fluorobenzofuran-5-yl)methoxy)-4-methoxyphenyl)acetic acid]: the IC50 was under 1000 nM. The figure for `COc1ccc(OCc2cc(-c3cccc(CN)c3)c3ccn(C(C)C)c3c2)c(CC(=O)O)c1` [Compound 493b, 2-(2-((4-(3-(aminomethyl)phenyl)-1-isopropyl-1H-indol-6-yl)methoxy)-5-methoxyphenyl)acetic acid] is under 1000 nM; for `CC(C)n1ccc2c(-c3cccc(CN)c3F)cc(COc3ccc(F)cc3CC(=O)O)cc21` [Compound 494b, 2-(2-((4-(3-(aminomethyl)-2-fluorophenyl)-1-isopropyl-1H-indol-6-yl)methoxy)-5-fluorophenyl)acetic acid] it is under 1000 nM. The figure for `CC(C)n1ccc2c(-c3ccnc(CN)c3F)cc(COc3cc(F)ccc3CC(=O)O)cc21` [Compound 495d, 2-(2-((4-(2-(aminomethyl)-3-fluoropyridin-4-yl)-1-isopropyl-1H-indol-6-yl)methoxy)-4-fluorophenyl)acetic acid] is under 1000 nM. As for `CC(C)n1ccc2c(-c3ccnc(CN)c3)cc(COc3cc(F)ccc3CC(=O)O)cc21` [Compound 496c, 2-(2-((4-(2-(aminomethyl)pyridin-4-yl)-1-isopropyl-1H-indol-6-yl)methoxy)-4-fluorophenyl)acetic acid], the figure is under 1000 nM; as for `CC(C)n1ccc2c(-c3ccnc(CN)c3)cc(COc3ccc(F)cc3CC(=O)O)cc21` [Compound 497d, 2-(2-((4-(2-(aminomethyl)pyridin-4-yl)-1-isopropyl-1H-indol-6-yl)methoxy)-5-fluorophenyl)acetic acid], under 1000 nM; as for `COc1ccc(CC(=O)O)c(OCc2cc(-c3ccnc(CN)c3F)c3occ(C(F)(F)F)c3c2)c1` [Compound 498c, 2-(2-((7-(2-(aminomethyl)-3-fluoropyridin-4-yl)-3-(trifluoromethyl)benzofuran-5-yl)methoxy)-4-methoxyphenyl)acetic acid], under 1000 nM. For the molecule `COc1ccc(CC(=O)O)c(OCc2cc(-c3ccnc(CN)c3)c3occ(C(F)(F)F)c3c2)c1` [Compound 499b, 2-(2-((7-(2-(aminomethyl)pyridin-4-yl)-3-(trifluoromethyl)benzofuran-5-yl)methoxy)-4-methoxyphenyl)acetic acid], the IC50 is under 1000 nM.

Take `NCc1cccc(-c2cc(COc3ccc(F)cc3CC(=O)O)cc3c(C(F)(F)F)coc23)c1` [Compound 500c, 2-(2-((7-(3-(aminomethyl)phenyl)-3-(trifluoromethyl)benzofuran-5-yl)methoxy)-5-fluorophenyl)acetic acid]: the IC50 is under 1000 nM. The figure for `NCc1cccc(-c2cc(COc3ccccc3CC(=O)O)cc3[nH]c(C(F)(F)F)cc23)c1F` [Compound 501f, 2-(2-((4-(3-(aminomethyl)-2-fluorophenyl)-2-(trifluoromethyl)-1H-indol-6-yl)methoxy)phenyl)acetic acid] is under 1000 nM; for `NCc1cccc(-c2cc(COc3c(F)cccc3CC(=O)O)cc3ccoc23)c1F` [Compound 502c, 2-(2-((7-(3-(aminomethyl)-2-fluorophenyl)benzofuran-5-yl)methoxy)-3-fluorophenyl)acetic acid] it is under 1000 nM; for `NCc1cc(-c2cc(COc3cc(F)ccc3CC(=O)O)c(F)c3ccoc23)ccn1` [Compound 503c, 2-(2-((7-(2-(aminomethyl)pyridin-4-yl)-4-fluorobenzofuran-5-yl)methoxy)-4-fluorophenyl)acetic acid] it is under 1000 nM. The figure for `NCc1cc(-c2cc(COc3c(F)cccc3CC(=O)O)cc3ccoc23)ccn1` [Compound 504c, 2-(2-((7-(2-(aminomethyl)pyridin-4-yl)benzofuran-5-yl)methoxy)-3-fluorophenyl)acetic acid] is under 1000 nM; for `CC(=O)c1ccc(CC(=O)O)c(OCc2cc(-c3ccnc(CN)c3F)c3occc3c2)c1` [Compound 505d, 2-(4-acetyl-2-((7-(2-(aminomethyl)-3-fluoropyridin-4-yl)benzofuran-5-yl)methoxy)phenyl)acetic acid] it is under 1000 nM.

`CC(=O)c1ccc(CC(=O)O)c(OCc2cc(-c3cccc(CN)c3)c3occ(C(F)(F)F)c3c2)c1` [Compound 506e, 2-(4-acetyl-2-((7-(3-(aminomethyl)phenyl)-3-(trifluoromethyl)benzofuran-5-yl)methoxy)phenyl)acetic acid]: the IC50 is under 1000 nM. The figure for `NCc1cccc(-c2cc(NC(=O)[C@@H]3CCCN3C(=O)NCc3cccc(Cl)c3F)cc3ccoc23)c1` [Compound 507f, (S)—N2-(7-(3-(aminomethyl)phenyl)benzofuran-5-yl)-N1-(3-chloro-2-fluorobenzyl)pyrrolidine-1,2-dicarboxamide] is 1000 to 10000 nM. As for `COc1cccc(CC(=O)O)c1OCc1cc(-c2cccc(CN)c2F)c2occc2c1` [Compound 508b, 2-(2-((7-(3-(aminomethyl)-2-fluorophenyl)benzofuran-5-yl)methoxy)-3-methoxyphenyl)acetic acid], the figure is under 1000 nM. As for `NCc1nccc(-c2cc(COc3cc(F)ccc3CC(=O)O)c(F)c3ccoc23)c1F` [Compound 509d, 2-(2-((7-(2-(aminomethyl)-3-fluoropyridin-4-yl)-4-fluorobenzofuran-5-yl)methoxy)-4-fluorophenyl)acetic acid], the IC50 is under 1000 nM. As for `NCc1nccc(-c2cc(COc3c(F)cccc3CC(=O)O)cc3ccoc23)c1F` [Compound 510d, 2-(2-((7-(2-(aminomethyl)-3-fluoropyridin-4-yl)benzofuran-5-yl)methoxy)-3-fluorophenyl)acetic acid], the figure is under 1000 nM; as for `CC(=O)c1ccc(CC(=O)O)c(OCc2cc(-c3ccnc(CN)c3)c3occc3c2)c1` [Compound 511e, 2-(4-acetyl-2-((7-(2-(aminomethyl)pyridin-4-yl)benzofuran-5-yl)methoxy)phenyl)acetic acid], under 1000 nM.
